# Key:
# [1] = target: T1, lysine-binding pocket of the kringle domain of NK1 (Homo sapiens, UniProt P14210); assay: Soaking into NK1 apo crystals, X-ray crystallography; conditions: soaked into NK1 apo crystals
# T1 construct: made in house; host or cells: Pichia pastoris
# Description: Next, three classes of piperazine-like sulphonated compounds containing piperazine ((H)EPPS and PIPES), morpholine (MES and MOPS), or cyclohexane (CHES and CAPS) rings were studied for their binding to NK1 (Table 1), alongside another five sulphonated compounds selected from a chemical fragment library (Table 2).
# NK1 buffered in 150 mM NaCl, 50 mM Tris, pH 7.5 (apo-NK1 and all soaking experiments) was concentrated to ∼20 mg mL^–1 using a Vivaspin device with a 10 kDa cut-off membrane (Sartorius Biolab). Crystallisation was carried out in Linbro plates by the vapour diffusion hanging drop technique using a protein : precipitant ratio of 1 : 1 at 20 °C. Previously NK1 has been crystallised in 18% PEG 4000, 200 mM sodium acetate and 150 mM Tris pH 8.5 as precipitant.[19] Here final crystallisation conditions (19% PEG 4000, 200 mM sodium acetate and 150 mM Tris pH 7.5) were optimised around those to achieve high-resolution apo structure. Details of compound soaking, X-ray data collection and structure determination are given in the ESI ^† section of the manuscript. […]
# For this, 1 M stock solutions were prepared in DMSO (fragments) or water (piperazine- like compounds) and the pH adjusted to a value within their buffering range with either HCl or NaOH. The seven piperazine- like compounds and their respective pH are: HEPES (pH 7.6), (H)EPPS (pH 7.4), PIPES (pH 7.0), MES (pH 5.8), MOPS (pH 7.2), CHES (pH 8.6) and CAPS (pH 9.7). Secondary stocks of the compounds at 50 mM were prepared in the […]
# respective mother liquor and soaked for up to 48 hours.
# MB605 was solubilised in 50% DMSO at 20 mM concentration (1% f inal DMSO concentration in the drop) in order to minimize adverse effects of DMSO on the protein crystal. 25% ethylene glycol was used as the cryoprotective agent.
# X-ray data collection and processing
# X-ray datasets were collected either at the European Synchrotron Radiation Facility (ESRF, Grenoble, France), the Diamond Light Source (DLS, Oxford, UK) or in-house using the X8 PROTEUM (Bruker AXS) at the Department of Biochemistry, University of Cambridge.
# Datasets of at least 180° were collected. Raw data collected at synchrotrons were integrated, merged, scaled and reduced using DENZO and […].2 Raw data […]
# collected in- house were integrated, merged, scaled and reduced using the PROTEUM 2 software package .3 The CCP4 suite of crystallographic programs (Collaborative
# [2] = test system: MET downstream signalling (Erk 1/2, Akt) in Vero cells; assay: MET, Erk1/2 and Akt phosphorylation assay in NK1-stimulated Vero cells (Western blot); format: cell-based; conditions: Vero cells stimulated with NK1; compound 100 mM (lanes 4)
# Description: We evaluated the effect of piperazine-like compounds and MB605 on Vero cells by assessing MET, Erk 1/2 and Akt phosphorylation in response to stimulation using […] NK1. MB605 was dissolved in DMSO, which limited the range of concentrations tested to ≤1 mM in order to avoid solvent effects on cell function/viability. The water-soluble piperazine-like compounds, in contrast, could be tested at concentrations up to 100 mM.
# Fig. 6 Biological activity of the piperazine-like compounds and MB605. (a–e) Vero cells expressing the receptor endogenously on their cell surface were stimulated with HGF/SF or NK1 and phosphorylation of MET and downstream targets Akt and Erk1/2 was analysed. Piperazine-like compounds HEPES (a), (H)EPPS (b), MES (c), MOPS (d) and CAPS (e) were tested at 100 mM (lanes 4), 10 mM (lanes 5), 1 mM (lanes 6) and 100 μM (lanes 7) concentration in the presence of 1 nM NK1. To control for activating or inhibiting effects of the compounds independently of MET, piperazine-like compounds were tested on cells at 100 mM without stimulation by NK1 (lanes 3). Biological activity of MB605 (f) was investigated at 1 mM (lane 5), 100 μM (lane 6) and 10 μM (lane 7) in the presence of a constant concentration of DMSO (0.1%). A solvent control (0.1% DMSO, lane 3) was included in order to account for the effect of DMSO on the cells. A positive control (1 nM NK1 in the presence of 0.1% DMSO) is shown in lane 4. In all experiments, un-stimulated cells served as negative control (lanes 1) while cells stimulated with 1 nM NK1 served as positive control (lanes 2).
# The ability of MB605 and the piperazine-like compounds to inhibit MET, Erk and Akt phosphorylation in the presence of NK1 was tested using mammalian Vero cells as described by Ferraris et al.[47] and further details are given in the ESI ^† section of the manuscript. […]
# For MET, Erk1/2 and Akt phosphorylation assays, Vero cells were seeded at 2.1 × 10^5 cells we ll -1 (2 ml we ll -1) in 6-well plates and grown to 90% conf luence in 10% FCS/DMEM media and then switched to serum-free medium (to avoid any growth f actors present in the serum).
# 24 hours post starvation the cells were stimulated for 5 min at 37°C with each individual piperazine -like compounds as well as with NK1 (1 nM) pre-incubated with different concentrations of the piperazine- like compounds (100 mM, 10 mM, 1 mM and 100 μM) or MB605 (1 mM, 100 μM and 10 μM). Stimulations with either 0. 1% DMS O or 1 nM of NK1 […]
# solution were used as a negative and a positive control, respectively. The cells were then washed in PBS buffer, lysed on ice f or 30 min and frozen at -80 °C until further analysis. For
# [3] = target: T2, NK1 (Homo sapiens, UniProt P14210); assay: SPR steady-state binding to immobilized NK1 (Biacore T100); design: made in house; host or cells: Pichia pastoris
# T2 sequence (P14210 32-210 isoform P14210-6 limits assumed): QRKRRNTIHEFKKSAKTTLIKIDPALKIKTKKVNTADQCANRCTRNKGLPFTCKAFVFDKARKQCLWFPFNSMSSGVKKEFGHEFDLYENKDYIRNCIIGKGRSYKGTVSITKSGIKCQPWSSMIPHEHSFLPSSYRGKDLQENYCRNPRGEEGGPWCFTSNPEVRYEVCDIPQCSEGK
# Description: Binding constants of piperazine-like compounds and fragments were determined using a Biacore T100 instrument. NK1 was immobilized on a CM5 chip by amine coupling to a density of 6000 RU. Compounds were stored as 100 mM stock solutions in water and serial dilutions were prepared in the running buffer (PBS pH 7.4, 0.05% Tween 20). The compound solutions were injected onto the surface of the chip at a flow rate of 30 μL min^–1, contact time was 1 min and dissociation time 1 min. Sensorgrams were analysed using the Biacore T100 evaluation software and the binding constants determined.
# [4] = target: T2, NK1; assay: 1H-15N TROSY-HSQC NMR chemical shift titration of 15N-labelled NK1; format: binding; design: made in house; host or cells: Pichia pastoris; conditions: steady-state binding constants; piperazine-like compounds; 0.18 mM NK1, pH 7.2, 310 K; read-out: KD in NMR
# Description: Ligand screening was performed by monitoring the chemical shift variations in ^1H-^15N TROSY-HSQC NMR spectra of the uniformly [^15N]-labelled NK1 protein (Fragai et al. 2015, in prep.) upon the addition of increasing concentrations of the investigated compounds.[43]–[45] The experiments were performed using 0.18 mM protein samples in 25 mM Tris, 100 mM NaCl and 0.01% sodium azide, at pH 7.2 with 10% D2O. The spectra were recorded at 310 K on a Bruker AVANCE 900 MHz spectrometer equipped with a TXI cryo-probe. Sample solutions were prepared from 1 M or 100 mM DMSO stock solutions of the ligands. The dissociation constant values (KD) were calculated by plotting the weighted average ^1H and ^15N chemical shifts of the residues experiencing significant variations as a function of ligand concentration added during the titration and considering the one site binding model.[46]
# [5] = target: T2, NK1; assay: SPR fragment library screening against NK1; format: binding; design: made in house; host or cells: Pichia pastoris; conditions: for Ranking order: based on fragment screening, rank among the 71 NK1 hits (ESI Tables S3-S7); for SPR response: normalised relative value against NK1
# Description: Supplementary Materials and Methods
# Fragment library screening and data analysis
# Met567 (soluble truncated f ragment of the MET ectodomain, residues 25- 567), NK1 and t he SPH domain were immobilized on CM5 chips by amine coupling. NK1 was diluted into 10 m M phosphate pH 7.0 and the SPH domain into 10 mM acetate pH 5.5 to a final concentration of 2.5 μM and 1 μM, respectively, for coupling. The immobilization wizard within the Biacore T100 software was set to “aim for immobiliz ed level” of 8000 RU to achieve complete saturation of the chip surface.
# W ith minor deviations, the procedure and conditions outlined below were used f or a ll screening s of an in-house fragment library of 1338 members against individual target proteins. The running buffer was PBS pH 7.4, 0.05% Tween 20, 0.25% DMSO (1% DMSO for Met567). Fragments were stored as 100 mM stock solutions in DMSO. Prior to screening, fragment samples were diluted to 500 μM (1 mM f or Met567) in running buffer.
# Screening was performed in 96- we ll plates at a flow rate of 30 μl min-1 with 1 min sample injection f ollowed by dissociation f or 1 min and surf ace regeneration using 1 M NaCl f or 30 […]
# post-regeneration baseline exceeded the pre- sample baseline by more than 10 RU, a second regeneration cycle with 50% ethylene glycol was used. In order to be able to correct for small variations in DMSO concentration between samples, eight solvent samples ranging from 0.012 to 1.5% DMSO were injected every 40th cycle. To monitor the binding capacity of the NK1, SPH and Met567 surfaces throughout the screening, injections of 500 μM HEPES (NK1), 0.25 μM Met567 (SPH) and 0.2 μM NK1 and 1% DMSO (Met567) were carried out every 40th cycle. The flow cell temperature was 25°C. NK1 and the SPH domain were immobilized on the same chip (channels 2 and 3 respectively) and were theref ore screened in parallel. Met567 was screened separately and results are published in an accompanying paper (W in t er et al. 2015, in revision).
# For data analysis, fir st, all responses were reference and solvent corrected. 1 Next, equilibrium binding for every fragment was determined and hits established by applying several filters: sensorgram shape, upper and lower threshold. Typical sensorgrams from fragment screening show “square curves” in SPR due to the fast on and off rates and fragments not showing this response were discarded from further analysis. Binding levels are represented as response units (RU) but the SPR signal is a convolution of multiple parameters including target coupling density, target -binding activity, target molecular weight and molecular weight of each injected fragment. To be able to identif y hits accurately and to be able to compare responses between different plates and targets, data were normalised against these factors. First the theoretical maximum response for each fragment was calculated using equation 1:
# RRmmm = CCCCCCCC ddCdCdd× MMffmCmdCd (Equation 1)
# This RUmax value diff ers for each protein target because it depends on the molecular weight of the protein and the amount of protein immobilized on the chip (coupling density). The RUmax was then used to calculate the normalised relative SPR response:
# NNNNNNNNNN NNNNr NrN SSR NNNrNrNN = RRcppppcppc× 100% (Equation 2) […]
# fragment should cause upon binding. 100% response would be 1:1 binding wit h levels above 100% implying over-stoichiometric binding. […]
# Fragment library screening to identify small molecule binders
# [6] = steady-state binding constants, piperazine-like compounds, immobilized NK1, PBS pH 7.4, read-out: KD in SPR
# [7] = steady-state binding constant from SPR, fragment hits (Table 3, text), read-out: KD
# [8] = fragments 500 μM (ESI Tables S3-S7)
# [9] = initial fragment screening, fragments 500 μM (Table 3)
# [10] = steady-state binding constant from SPR (ESI Tables S3-S7), read-out: KD
# T1 sequence (P14210 32-210 isoform P14210-6 limits assumed): as above
SMILES,Ranking order [5],"SPR response [5, 8] [%]","Kd [3, 10] [µM]",further results
"O=S(=O)(O)CCCO [2FA, 3-Hydroxypropane-1-sulphonic acid]",–,–,–,binding in the lysine-binding pocket (crystal structure) [1]: bound in the lysine-binding pocket
O=S(=O)(O)CCCN1CCN(CCO)CC1 [(H)EPPS],–,–,–,"Inhibition of phosphorylation of Erk 1/2 and Akt (S473) [2]: Inhibition of phosphorylation; Kd [3, 6]: 7000 ± 1000 µM; Kd [4]: 4400 ± 1800 µM"
O=S(=O)(O)CCNC1CCCCC1 [CHES],–,–,–,"binding in the lysine-binding pocket (crystal structure) [1]: bind the lysine-binding pocket of NK1; Kd [3, 6]: 30200 ± 3100 µM; Kd [4]: 15700 ± 4500 µM"
COc1ccc(C#N)cn1 [MB1261],12,95,–,"Kd [3, 7]: 350 ± 40 µM; SPR response [5, 9]: 95%"
CC(=O)Nc1ccccc1F [MB1267],16,90,1600,–
Cc1cccc(CN)c1C [MB1274],7,105,1600,–
Cc1cccc(C)c1C#N [MB1283],13,94,–,"KD ([3]; steady-state binding constant from SPR, fragment hits (Table 3, text)): lowest affinity"
Cc1cccc(C(N)=O)c1C [MB1284],15,90,–,"Kd [3, 7]: 860 ± 70 µM; SPR response [5, 9]: 90%"
CNCc1cccnc1 [MB1290],9,102,1640,–
Nc1ccc(OC(F)F)cc1 [MB1293],22,72,5000,–
Cc1cc(C)on1 [MB1299],2,131,2200,–
Cc1ccc(C(=O)O)cc1Cl [MB1306],21,77,2500,–
CCCc1ccc(C(C)=O)cc1 [MB1315],47,52,–,"Kd [3, 7]: 940 ± 90 µM; SPR response [5, 9]: 52%"
Cc1cc(Cl)ccc1C(=O)O [MB1318],33,61,–,"Kd [3, 7]: 360 ± 40 µM; SPR response [5, 9]: 61%"
"O=S(=O)(O)CCN1CCN(CCS(=O)(=O)O)CC1 [PIPES, reference compound]",–,–,–,"Kd [3, 6]: 26600 ± 600 µM; Kd [4]: 45900 ± 4700 µM"

# — publication PMC6054100, “Exploring the chemical space of the lysine-binding pocket of the first kringle domain of hepatocyte growth factor/scatter factor (HGF/SF) yields a new class of inhibitors of HGF/SF-MET binding” (Chemical Science, 2015)
